Experiments:
P450cam = target: T1, P450cam (Pseudomonas putida, UniProt P00183, R187A); assay: isothermal titration calorimetry; assay type: binding
T1 sequence (P00183 2-415 R187A): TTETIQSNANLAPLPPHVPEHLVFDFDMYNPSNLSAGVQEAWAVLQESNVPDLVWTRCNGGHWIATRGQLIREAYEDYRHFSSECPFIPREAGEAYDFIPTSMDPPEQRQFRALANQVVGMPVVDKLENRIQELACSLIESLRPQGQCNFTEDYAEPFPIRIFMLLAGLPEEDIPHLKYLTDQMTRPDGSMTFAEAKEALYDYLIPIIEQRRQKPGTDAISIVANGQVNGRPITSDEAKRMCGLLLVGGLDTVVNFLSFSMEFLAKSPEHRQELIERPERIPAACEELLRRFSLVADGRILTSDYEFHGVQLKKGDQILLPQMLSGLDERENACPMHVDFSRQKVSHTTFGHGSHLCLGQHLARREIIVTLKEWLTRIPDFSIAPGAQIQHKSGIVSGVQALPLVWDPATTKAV

[1] = target: T2, R186A mutant of cytochrome P450cam (Pseudomonas putida, UniProt P00183 2-415, R186A); assay: ITC
T2 sequence: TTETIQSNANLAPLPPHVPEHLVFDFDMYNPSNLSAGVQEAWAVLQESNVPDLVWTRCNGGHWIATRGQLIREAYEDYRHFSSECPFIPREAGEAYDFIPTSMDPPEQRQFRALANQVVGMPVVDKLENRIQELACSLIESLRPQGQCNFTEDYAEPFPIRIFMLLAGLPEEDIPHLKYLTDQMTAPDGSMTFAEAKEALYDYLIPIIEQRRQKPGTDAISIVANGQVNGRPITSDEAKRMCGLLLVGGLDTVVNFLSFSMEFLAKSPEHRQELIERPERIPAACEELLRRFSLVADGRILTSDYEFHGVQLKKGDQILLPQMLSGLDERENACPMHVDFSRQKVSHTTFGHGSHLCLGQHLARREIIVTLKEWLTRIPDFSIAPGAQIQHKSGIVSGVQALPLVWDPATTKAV

Kd [1] [µM] | Molecule | Kd (P450cam) [µM]
 | CC1(C)[C@@H]2CC[C@@]1(C)C(=O)C2 [D-camphor] | 32.2 ± 4
22.1 | putidaredoxin (natural protein, Pseudomonas putida) MSKVVYVSHDGTRRELDVADGVSLMQAAVSNGIYDIVGDCGGSASCATCHVYVNEAFTDKVPAANEREIGMLECVTAELKPNSRLCCQIIMTPELDGIVVDVPDRQW | 

Source: paper PMC5640156 (Journal of the American Chemical Society, 2017)
